Experimental data reported in ChEMBL document CHEMBL5303766, “Data for DCP probe FHT-2344” (2022).
Calls of active or inactive are those of the source. No cut-off for these calls is given here.

What was measured:
[1] = target: AP2-associated protein kinase 1 (Homo sapiens) (UniProt Q2M2I8); assay: AAK1 SGC Tm panel (DSF); conditions: for ΔTm: Compound concentration 10.0 uM
[2] = target: SWI/SNF-related matrix-associated actin-dependent regulator of chromatin subfamily A member 4 (Homo sapiens, UniProt P51532); assay: Luciferase reporter assay: SMARCA4 transcriptional activity in a SMARCA2-mutant cell line; type: functional
[3] = target: D(2) dopamine receptor (Homo sapiens) (UniProt P14416); conditions: Compound concentration 10.0 uM
D(2) dopamine receptor (Homo sapiens), sequence (P14416 whole entry): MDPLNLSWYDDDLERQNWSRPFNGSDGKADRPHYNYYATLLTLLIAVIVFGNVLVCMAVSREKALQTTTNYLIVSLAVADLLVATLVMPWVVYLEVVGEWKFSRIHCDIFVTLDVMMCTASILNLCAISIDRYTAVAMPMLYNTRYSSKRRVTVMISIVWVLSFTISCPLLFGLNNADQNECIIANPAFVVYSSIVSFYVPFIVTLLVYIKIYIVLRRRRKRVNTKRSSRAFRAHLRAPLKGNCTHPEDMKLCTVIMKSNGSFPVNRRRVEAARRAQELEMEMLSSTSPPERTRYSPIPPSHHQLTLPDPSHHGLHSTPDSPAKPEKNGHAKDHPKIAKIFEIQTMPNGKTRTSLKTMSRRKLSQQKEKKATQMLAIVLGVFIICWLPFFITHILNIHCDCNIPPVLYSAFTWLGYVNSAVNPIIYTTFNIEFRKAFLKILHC

[4] = target: SWI/SNF-related matrix-associated actin-dependent regulator of chromatin subfamily A member 2 (Homo sapiens, UniProt P51531); assay: Luciferase reporter assay: SMARCA2 transcriptional activity in a SMARCA4-mutant cell line; type: functional
SWI/SNF-related matrix-associated actin-dependent regulator of chromatin subfamily A member 2, sequence (P51531 whole entry, looked up, change not shown): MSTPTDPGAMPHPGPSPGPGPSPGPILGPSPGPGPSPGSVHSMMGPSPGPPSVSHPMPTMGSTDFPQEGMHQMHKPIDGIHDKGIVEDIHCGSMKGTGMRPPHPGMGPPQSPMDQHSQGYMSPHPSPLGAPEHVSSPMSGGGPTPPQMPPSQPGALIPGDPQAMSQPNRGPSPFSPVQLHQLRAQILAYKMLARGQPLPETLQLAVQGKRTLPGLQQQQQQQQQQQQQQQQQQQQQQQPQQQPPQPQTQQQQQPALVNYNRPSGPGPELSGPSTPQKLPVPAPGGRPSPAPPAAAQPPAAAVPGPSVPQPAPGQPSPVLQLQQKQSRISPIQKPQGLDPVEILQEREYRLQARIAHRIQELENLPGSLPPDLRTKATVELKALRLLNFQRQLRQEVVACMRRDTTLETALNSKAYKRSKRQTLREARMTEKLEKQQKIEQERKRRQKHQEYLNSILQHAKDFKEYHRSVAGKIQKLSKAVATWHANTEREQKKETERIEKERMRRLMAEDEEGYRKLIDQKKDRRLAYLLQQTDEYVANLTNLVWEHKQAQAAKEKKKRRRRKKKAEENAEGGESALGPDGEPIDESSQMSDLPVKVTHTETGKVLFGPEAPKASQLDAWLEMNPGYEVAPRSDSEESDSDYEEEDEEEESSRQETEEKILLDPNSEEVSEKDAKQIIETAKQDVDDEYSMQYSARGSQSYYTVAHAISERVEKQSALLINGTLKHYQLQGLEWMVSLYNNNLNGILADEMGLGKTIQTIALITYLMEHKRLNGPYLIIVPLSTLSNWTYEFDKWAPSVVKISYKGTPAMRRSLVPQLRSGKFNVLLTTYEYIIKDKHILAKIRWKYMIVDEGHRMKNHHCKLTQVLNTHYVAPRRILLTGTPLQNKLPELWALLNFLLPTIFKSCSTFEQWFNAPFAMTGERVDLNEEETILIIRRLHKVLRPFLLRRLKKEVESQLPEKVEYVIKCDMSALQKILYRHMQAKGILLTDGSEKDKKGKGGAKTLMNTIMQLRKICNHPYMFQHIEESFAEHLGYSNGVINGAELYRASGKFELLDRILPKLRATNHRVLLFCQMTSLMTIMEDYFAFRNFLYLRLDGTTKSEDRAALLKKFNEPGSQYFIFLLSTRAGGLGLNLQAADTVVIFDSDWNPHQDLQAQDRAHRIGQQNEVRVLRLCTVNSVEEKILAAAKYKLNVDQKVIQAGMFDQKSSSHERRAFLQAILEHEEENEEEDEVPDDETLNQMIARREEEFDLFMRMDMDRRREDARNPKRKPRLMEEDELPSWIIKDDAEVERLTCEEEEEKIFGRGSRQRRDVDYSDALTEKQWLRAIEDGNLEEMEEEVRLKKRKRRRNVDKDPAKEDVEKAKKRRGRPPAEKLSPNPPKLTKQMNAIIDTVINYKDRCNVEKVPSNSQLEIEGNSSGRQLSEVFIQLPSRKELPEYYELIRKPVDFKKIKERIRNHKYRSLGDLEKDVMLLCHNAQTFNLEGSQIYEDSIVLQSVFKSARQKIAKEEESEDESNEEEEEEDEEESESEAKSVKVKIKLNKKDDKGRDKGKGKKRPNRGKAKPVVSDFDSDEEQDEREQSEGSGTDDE

[5] = target: 5-hydroxytryptamine receptor 2B (Homo sapiens, UniProt P41595); conditions: Compound concentration 10.0 uM
[6] = target: D(4) dopamine receptor (Homo sapiens) (UniProt P21917); conditions: Compound concentration 10.0 uM
[7] = target: Serine/threonine-protein kinase 26 (Homo sapiens) (UniProt Q9P289); assay: MST4 SGC Tm panel (DSF); conditions: for ΔTm: Compound concentration 10.0 uM
Serine/threonine-protein kinase 26 (Homo sapiens), sequence (Q9P289 2-416 limits assumed): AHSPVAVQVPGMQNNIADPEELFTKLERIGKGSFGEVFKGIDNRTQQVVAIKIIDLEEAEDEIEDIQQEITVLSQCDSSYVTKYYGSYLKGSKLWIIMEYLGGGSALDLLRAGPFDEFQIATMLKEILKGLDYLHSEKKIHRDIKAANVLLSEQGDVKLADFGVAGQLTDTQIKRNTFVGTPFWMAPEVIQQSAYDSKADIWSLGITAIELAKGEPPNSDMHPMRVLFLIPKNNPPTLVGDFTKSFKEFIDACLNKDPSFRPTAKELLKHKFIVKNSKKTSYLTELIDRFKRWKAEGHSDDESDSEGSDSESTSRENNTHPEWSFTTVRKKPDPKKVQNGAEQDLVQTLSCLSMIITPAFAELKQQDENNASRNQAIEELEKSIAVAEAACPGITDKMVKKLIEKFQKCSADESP

[8] = target: T1, Serine/threonine-protein kinase DCLK1 (Homo sapiens) (UniProt O15075); assay: DCAMKL1 SGC Tm panel (DSF); conditions: for ΔTm: Compound concentration 10.0 uM
T1 sequence (whole entry): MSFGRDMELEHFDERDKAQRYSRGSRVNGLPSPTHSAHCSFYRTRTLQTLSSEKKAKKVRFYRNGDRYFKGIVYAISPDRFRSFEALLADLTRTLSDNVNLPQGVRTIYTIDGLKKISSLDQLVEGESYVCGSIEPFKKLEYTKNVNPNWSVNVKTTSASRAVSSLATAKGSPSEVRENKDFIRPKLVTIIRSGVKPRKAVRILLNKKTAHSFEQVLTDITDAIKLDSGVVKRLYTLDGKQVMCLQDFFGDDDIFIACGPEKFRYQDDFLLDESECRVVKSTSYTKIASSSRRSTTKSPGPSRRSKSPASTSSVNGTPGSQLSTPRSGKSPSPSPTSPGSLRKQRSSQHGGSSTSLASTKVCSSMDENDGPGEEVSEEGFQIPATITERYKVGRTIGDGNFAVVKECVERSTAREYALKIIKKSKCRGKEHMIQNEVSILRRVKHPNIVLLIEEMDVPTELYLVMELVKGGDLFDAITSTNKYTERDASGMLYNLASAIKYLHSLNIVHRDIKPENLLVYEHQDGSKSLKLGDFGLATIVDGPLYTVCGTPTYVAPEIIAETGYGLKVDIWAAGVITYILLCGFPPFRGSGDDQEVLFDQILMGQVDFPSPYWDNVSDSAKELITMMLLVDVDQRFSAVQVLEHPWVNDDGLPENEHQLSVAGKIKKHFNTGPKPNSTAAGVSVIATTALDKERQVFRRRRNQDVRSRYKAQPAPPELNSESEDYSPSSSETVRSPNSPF

[9] = target: Casein kinase I isoform delta (Homo sapiens) (UniProt P48730); assay: CSNK1D SGC Tm panel (DSF); conditions: for ΔTm: Compound concentration 10.0 uM
Casein kinase I isoform delta (Homo sapiens), sequence (P48730 whole entry, looked up, canonical isoform): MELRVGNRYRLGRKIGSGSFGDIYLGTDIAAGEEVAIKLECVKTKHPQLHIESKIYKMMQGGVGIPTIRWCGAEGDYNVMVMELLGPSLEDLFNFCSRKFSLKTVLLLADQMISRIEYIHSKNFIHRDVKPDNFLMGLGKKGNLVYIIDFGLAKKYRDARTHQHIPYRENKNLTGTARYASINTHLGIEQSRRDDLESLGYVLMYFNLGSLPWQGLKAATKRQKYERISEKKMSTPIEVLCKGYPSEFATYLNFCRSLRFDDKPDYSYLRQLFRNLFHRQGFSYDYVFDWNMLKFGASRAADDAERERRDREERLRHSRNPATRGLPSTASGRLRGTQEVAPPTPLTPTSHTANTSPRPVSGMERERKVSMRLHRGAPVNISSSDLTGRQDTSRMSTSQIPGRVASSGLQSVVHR

[10] = target: T2, Dual specificity mitogen-activated protein kinase kinase 6 (Homo sapiens) (UniProt P52564); assay: MAP2K6 SGC Tm panel (DSF); conditions: for ΔTm: Compound concentration 10.0 uM
T2 sequence (whole entry): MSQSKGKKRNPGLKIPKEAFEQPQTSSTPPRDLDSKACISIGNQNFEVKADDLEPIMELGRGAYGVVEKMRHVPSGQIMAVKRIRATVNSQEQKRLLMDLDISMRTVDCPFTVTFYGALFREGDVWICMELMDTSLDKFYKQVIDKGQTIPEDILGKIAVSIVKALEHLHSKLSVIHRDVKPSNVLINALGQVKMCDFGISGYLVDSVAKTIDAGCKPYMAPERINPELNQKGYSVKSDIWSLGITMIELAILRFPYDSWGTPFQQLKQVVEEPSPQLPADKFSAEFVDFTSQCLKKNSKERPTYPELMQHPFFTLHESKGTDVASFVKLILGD

[11] = target: G protein-coupled receptor kinase 5 (Homo sapiens) (UniProt P34947); assay: GPRK5 SGC Tm panel (DSF); conditions: for ΔTm: Compound concentration 10.0 uM
G protein-coupled receptor kinase 5 (Homo sapiens), sequence (P34947 whole entry, looked up): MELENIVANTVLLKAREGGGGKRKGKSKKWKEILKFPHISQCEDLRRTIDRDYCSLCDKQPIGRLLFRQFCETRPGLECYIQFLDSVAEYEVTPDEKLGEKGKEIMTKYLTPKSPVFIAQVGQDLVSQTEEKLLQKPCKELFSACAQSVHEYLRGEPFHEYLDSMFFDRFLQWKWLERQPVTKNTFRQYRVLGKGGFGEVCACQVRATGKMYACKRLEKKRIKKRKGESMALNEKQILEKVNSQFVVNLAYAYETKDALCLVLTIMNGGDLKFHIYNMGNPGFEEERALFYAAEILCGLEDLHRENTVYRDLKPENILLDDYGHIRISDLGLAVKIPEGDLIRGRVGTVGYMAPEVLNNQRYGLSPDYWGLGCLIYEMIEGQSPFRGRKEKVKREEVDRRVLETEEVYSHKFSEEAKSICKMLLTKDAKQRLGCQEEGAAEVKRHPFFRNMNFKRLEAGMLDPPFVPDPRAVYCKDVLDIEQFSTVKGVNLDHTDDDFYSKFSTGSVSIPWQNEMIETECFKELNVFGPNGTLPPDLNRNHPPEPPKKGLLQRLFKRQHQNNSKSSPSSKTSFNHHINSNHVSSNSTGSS

[12] = target: T3, Calcium/calmodulin-dependent protein kinase type IV (Homo sapiens) (UniProt Q16566); assay: CAMK4 SGC Tm panel (DSF); conditions: for ΔTm: Compound concentration 10.0 uM
T3 sequence (whole entry): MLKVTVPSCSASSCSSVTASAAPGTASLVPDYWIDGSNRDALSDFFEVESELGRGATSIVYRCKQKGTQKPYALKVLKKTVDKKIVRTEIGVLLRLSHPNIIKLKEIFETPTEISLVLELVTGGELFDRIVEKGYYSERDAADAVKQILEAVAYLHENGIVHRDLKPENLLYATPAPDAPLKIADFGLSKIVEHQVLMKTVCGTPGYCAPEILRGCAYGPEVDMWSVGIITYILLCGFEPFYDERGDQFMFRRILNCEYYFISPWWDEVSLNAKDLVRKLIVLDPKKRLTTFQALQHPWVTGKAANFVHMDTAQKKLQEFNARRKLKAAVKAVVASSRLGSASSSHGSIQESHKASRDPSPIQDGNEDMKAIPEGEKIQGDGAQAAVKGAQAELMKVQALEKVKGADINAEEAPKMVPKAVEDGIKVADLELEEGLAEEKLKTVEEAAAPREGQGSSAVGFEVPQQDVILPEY

[13] = target: 5-hydroxytryptamine receptor 1A (Homo sapiens) (UniProt P08908); conditions: Compound concentration 10.0 uM
5-hydroxytryptamine receptor 1A (Homo sapiens), sequence (P08908 whole entry): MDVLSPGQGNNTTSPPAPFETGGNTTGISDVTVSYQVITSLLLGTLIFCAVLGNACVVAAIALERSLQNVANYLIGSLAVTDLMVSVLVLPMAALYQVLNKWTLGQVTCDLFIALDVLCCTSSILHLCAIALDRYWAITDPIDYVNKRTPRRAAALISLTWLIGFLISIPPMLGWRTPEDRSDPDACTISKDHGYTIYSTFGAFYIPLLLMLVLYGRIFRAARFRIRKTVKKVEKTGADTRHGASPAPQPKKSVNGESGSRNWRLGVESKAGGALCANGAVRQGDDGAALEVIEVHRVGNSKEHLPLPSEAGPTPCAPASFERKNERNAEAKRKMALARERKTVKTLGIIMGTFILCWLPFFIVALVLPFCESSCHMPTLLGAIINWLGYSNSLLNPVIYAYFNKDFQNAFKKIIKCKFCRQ

[14] = target: Alpha-2B adrenergic receptor (Homo sapiens) (UniProt P18089); conditions: Compound concentration 10.0 uM
[15] = target: Alpha-1B adrenergic receptor (Homo sapiens) (UniProt P35368); conditions: Compound concentration 10.0 uM

AP2-associated protein kinase 1 (Homo sapiens), sequence (Q2M2I8 whole entry, looked up): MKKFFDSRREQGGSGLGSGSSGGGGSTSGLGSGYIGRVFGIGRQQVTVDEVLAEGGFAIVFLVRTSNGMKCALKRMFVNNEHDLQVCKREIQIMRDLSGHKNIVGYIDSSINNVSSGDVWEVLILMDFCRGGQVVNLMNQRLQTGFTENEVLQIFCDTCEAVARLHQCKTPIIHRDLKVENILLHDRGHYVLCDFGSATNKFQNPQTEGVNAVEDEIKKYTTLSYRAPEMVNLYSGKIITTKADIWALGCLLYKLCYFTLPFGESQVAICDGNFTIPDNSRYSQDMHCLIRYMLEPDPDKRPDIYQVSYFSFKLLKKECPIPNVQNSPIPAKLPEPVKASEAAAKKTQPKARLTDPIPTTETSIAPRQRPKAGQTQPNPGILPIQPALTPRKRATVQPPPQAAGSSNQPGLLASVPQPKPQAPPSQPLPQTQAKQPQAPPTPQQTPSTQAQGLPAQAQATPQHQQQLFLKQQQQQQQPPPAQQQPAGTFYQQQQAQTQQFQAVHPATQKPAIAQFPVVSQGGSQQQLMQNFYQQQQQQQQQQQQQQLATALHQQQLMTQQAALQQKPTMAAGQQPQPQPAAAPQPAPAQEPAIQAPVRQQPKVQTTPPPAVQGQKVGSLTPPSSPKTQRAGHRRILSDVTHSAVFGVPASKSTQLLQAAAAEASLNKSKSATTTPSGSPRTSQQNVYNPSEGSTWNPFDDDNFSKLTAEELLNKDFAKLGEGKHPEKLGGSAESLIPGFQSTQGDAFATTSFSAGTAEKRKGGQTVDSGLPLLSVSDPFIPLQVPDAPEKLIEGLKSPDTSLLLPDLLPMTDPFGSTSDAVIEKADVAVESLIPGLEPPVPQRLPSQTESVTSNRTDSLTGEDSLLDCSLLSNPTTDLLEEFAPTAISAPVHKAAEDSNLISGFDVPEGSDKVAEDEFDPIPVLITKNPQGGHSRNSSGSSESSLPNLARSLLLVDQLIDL

COC[C@H](NC(=O)c1ccn(S(C)(=O)=O)c1)C(=O)Nc1nc(-c2cccc(-c3ccn(C)n3)c2)cs1
delta Tm Staurosporine positive control [1]: 11.6 | ΔTm [1]: -0.00871 | IC50 [2]: 30.2 nM (active) | inhibition [3]: 6.68% | IC50 [4]: 29.8 nM (active) | inhibition [5]: 48.2% | inhibition [6]: 1.52% | delta Tm Staurosporine positive control [7]: 6.93 | ΔTm [7]: -1.14 | delta Tm Staurosporine positive control [8]: 14 | ΔTm [8]: 0.237 | delta Tm Staurosporine positive control [9]: 1.43 | ΔTm [9]: 0.637 | delta Tm Staurosporine positive control [10]: 12.1 | ΔTm [10]: 1.51 | delta Tm Staurosporine positive control [11]: 6.82 | ΔTm [11]: 0.544 | delta Tm Staurosporine positive control [12]: 8.78 | ΔTm [12]: 0.803 | inhibition [13]: 29.7% | inhibition [14]: 6.88% | inhibition [15]: -5.17%

C[C@H](NC(=O)c1cn(C2(C#N)CC2)cn1)C(=O)Nc1nc(-c2cccc(-c3ccn(C)n3)c2)cs1
delta Tm Staurosporine positive control [1]: 11.6 | ΔTm [1]: 0.0243 | IC50 [2]: 2370 nM (not active) | inhibition [3]: 6.41% | IC50 [4]: 4350 nM (not active) | inhibition [5]: 86.8% | inhibition [6]: 6.59% | delta Tm Staurosporine positive control [7]: 6.93 | ΔTm [7]: -1.33 | delta Tm Staurosporine positive control [8]: 14 | ΔTm [8]: -0.00623 | delta Tm Staurosporine positive control [9]: 1.43 | ΔTm [9]: 0.845 | delta Tm Staurosporine positive control [10]: 12.1 | ΔTm [10]: 1.65 | delta Tm Staurosporine positive control [11]: 6.82 | ΔTm [11]: 0.226 | delta Tm Staurosporine positive control [12]: 8.78 | ΔTm [12]: 0.413 | inhibition [13]: 23% | inhibition [14]: 14.6% | inhibition [15]: 8%
